Results published in article doi:10.1101/2025.03.14.643404, “A Bivalent Molecular Glue Linking Lysine Acetyltransferases to Oncogene-induced Cell Death” (bioRxiv, 2025).
Like-named read-outs stand apart in the source and are kept apart here.

Legend:
[1] = system: SUDHL5 cells; assay: Cell cycle analysis (EdU / 7-AAD) of SUDHL5; format: cell-based, human; details: SUDHL5, 10 nM, 24 hours
Procedure: 2 million SUDHL5 cells were plated in 4 mL of media in 6-well plates and treated with 10 nM of drug. After 22 hours, cells were dosed with 10 μM 5-ethynyl-2’-deoxyuridine (EdU) and allowed to incubate for an additional 2 hours, at which point cells were harvested and collected by centrifuging at 300g for 4 minutes at 4°C. Cells were washed once with 1% BSA in PBS. 1.1 million cells in 1% BSA/PBS were then transferred to flow cytometry polypropylene tubes and centrifuged at 300g for 4 minutes at 4°C. Supernatant was removed, and cells were fixed for 15 minutes in the dark at room temperature with 100 μL of 4% PFA in PBS, in which gentle flicking was used to resuspend cells. Cells were then washed with 1 mL of 1% BSA/PBS and permeabilized with 100 μL of 0.1% Triton-X for 30 minutes at room temperature in the dark. Cells were washed with 3 mL 1% BSA/PBS, then incubated in the dark for 30 minutes with a cocktail of AlexaFluor-488-Azide (438 μL PBS, 10 μL 100 mM CuSO4, 2 μL 488-azide, and 50 μL of 1x EdU Reaction Buffer dissolved in water) (Invitrogen C10337). Cells were washed with 1 mL 1% BSA in PBS, then incubated with a reaction cocktail of 7-AAD/RNAseA for 30 minutes in the dark (500 μL 1% BSA/PBS, 2 μL 7-AAD (BD 559925), 5 μL RNAseA (Invitrogen 12091021)). […] Cells were gently agitated by shaking, then analyzed through flow cytometry on a BD Accuri. […]

[2] = biological target: T1, BCL6^BTB (Homo sapiens, UniProt P41182+Q09472, C67R/C84N/C8Q); assay: Isothermal calorimetry, BCL6BTB titrations; format: binding; details: ITC; for Kd: 25 °C
T1 construct: human BCL6 (residues 5–129; Uniprot: P41182); Trx (N, cleaved yes); 6xHis (N, cleaved yes); made in house; host or cells: bacteria (pET-48b(+) vector)
Procedure: 12 hours prior to performing ITC, frozen stocks of 6xHis-p300^BD and BCL6^BTB were dialyzed for two hours in ITC buffer at 4°C (50 mM HEPES pH 7.4, 100 μM TCEP, 150 mM NaCl), followed by dialysis in fresh ITC buffer overnight at 4°C to remove glycerol and equalize protein mixtures. Samples were centrifuged at 10,000g for 10 min to remove any precipitate. In all titrations, DMSO was added to protein mixtures to match the DMSO concentration of ligand dissolved in ITC buffer. For binary assays with TCIP3, dialyzed 6xHis-p300^BD or BCL6^BTB were titrated from the syringe into a cell containing TCIP3 dissolved in ITC buffer. For p300 titrations, 50 μM or 25 μM protein was titrated into 5 μM or 2.5 μM, respectively, of TCIP3. For BCL6 titrations, 70 μM or 40 μM protein was titrated into 7 μM or 5 μM, respectively, of TCIP3. For ternary titrations, 20× 6xHis-p300^BD was incubated with 1x TCIP3 in the cell to drive saturation of the binary complex, followed by a titration of 10x BCL6^BTB from the syringe, at 310 rpm stirring at 25°C. The following concentrations were used in each run: 15 μM BCL6^BTB, 30 μM p300, and 1.5 μM TCIP3; 18 μM BCL6 ^BTB, 36 μM 6xHis-p300^BD, and 1.8 μM TCIP3; or 10 μM BCL6 ^BTB, 20 μM 6xHis-p300^BD, and 1 μM TCIP3. Alternatively, 20x BCL6^BTB was incubated with 1x TCIP3 in the cell to drive saturation of the binary complex, followed by a titration of 10× 6xHis-p300^BD from the syringe, at 310 rpm stirring at 25°C. The following concentrations were used in each run: 30 μM BCL6, 15 μM 6xHis-p300^BD, and 1.5 μM TCIP3; 20 μM BCL6 ^BTB, 10 μM 6xHis-p300^BD, and 1 μM TCIP3; or 40 μM BCL6 ^BTB, 20 μM 6xHis-p300^BD, and 2 μM TCIP3. The first one or two injections and outliers from instrument noise were routinely excluded. Data were fit to a one-site model using MicroCal LLC Origin software. The following injection parameters were used for each run: (Total injection number: 35; Cell temp: 25 °C; Ref power: 10; Initial delay: 250 s; stirring speed: 310; Feedback mode: High; volume: 8 μL; Duration: 13.7 s; Filter period: 2; initial injection volume: 2 μL).

## CNC(=O)COc1cc2cc(Nc3nc(N4CCC(C(=O)N5CCN(CCC(=O)N6CCC(n7nc(N8CCCc9cc(-c%10cnn(C)c%10)c(C(F)F)cc98)c8c7CCN(C(=O)NC)C8)CC6)CC5)CC4)ncc3Cl)cc(OC)c2n(C)c1=O [TCIP3]
[1]
  cell cycle effect: enrichment in cells arrested in G0/G1
[2]; BCL6BTB titrated into TCIP3, read-out: Kd, binary BCL6:TCIP3
  Kd: 265 nM
[2]; BCL6BTB titrated into p300BD-saturated TCIP3, read-out: Kd, BCL6 into p300:TCIP3 (ternary)
  Kd: 19.8 nM
[2]; α = Kd binary/Kd ternary
  α BCL6 into p300:TCIP3: 13
